Laboratory results as given in patent publication US4916145A, “Substituted n-[(pyridyl)alkyl]aryl-carboxamide” (Hoffmann-La Roche Inc., priority 1987, dated 1990).

Key:
[1] = test system: PAF-Induced Platelet Count Decrease; experiment: PAF-Induced Platelet Count Decrease; type: in vivo, guinea pig; details: for inhibition in vivo at 3 mg/kg: Cavia porcellus, Platelet, 0.25 h, iv, 15 minutes pretreatment time, read-out: PAF-Induced Platelet Count Decrease % Inhibition, i.v.
Experimental: Male Hartley guinea pigs weighing between 500 and 900 grams were fed standard guinea pig chow and tap water ad libitum. PAF was solubilized in ethanol and stored as a 2 mM stock solution at -70° C. The stock solution of PAF was diluted to […] in Tris buffer pH 7.4 and 0.1% BSA for all experiments.
Guinea pigs were anesthetized with urethane (1.6 g/kg, i.p.). A catheter (PE50) was introduced into the right carotid artery for withdrawing blood. A second catheter PE10) was introduced into the jugular vein for injecting drugs and for administering the PAF challenge (75 ng/kg, i.v.). A control blood sample was obtained and platelets were counted in a whole blood platelet analyzer. PAF was then given and blood samples were taken 15, 30, and 60 seconds after the challenge for platelet counts. Fifteen minutes later, selected concentrations of the test compound were solubilized in DMSO and injected intravenously into a group of 4-6 animals. Only one concentration of the test drug was used in each animal group. Fifteen minutes after drug injection, blood samples were taken before and 15, 30, and 60 sec after the PAF challenge, and analyzed for platelet number.
Animals were anesthetized with sodium pentobarbital (35 mg/kg. i.p.) and the carotid artery and jugular vein were cannulated as described above. The cannulae were exteriorized at the base of the neck and the animals were allowed to recover. Conscious, unrestrained guinea pigs which were allowed to recover from surgery for at least 18 hours were used in the experiments. The animals were challenged two times with PAF (120 ng/kg, i.v.); the first to establish a consistent response to PAF and the second to serve as a control from the PAF challenge. Blood samples were taken before and 15, 30, and 45 seconds after PAF challenge and platelets were counted. Thirty minutes after the control PAF challenge, the animals were orally dosed with either gum acacia or the test compound. Animals were then challenged with PAF at 1, 3, 5, and 24 hours after the administration of the drug.
The % change, i.e., the difference in platelet number before and after PAF challenge was calculated by: [formula] The % activity of drug was then determined by
Statistical significance (p≤0.05) of the difference between the mean PAF control and mean drug treated activity was determined with the pared Students's t-test.

[2] = molecular target: T1, PAF binding, dog platelets (Canis lupus familiaris, UniProt A0A8I3NSH0); experiment: PAF Binding Assay (3H-PAF binding to washed dog platelets); details: 10 minutes at room temperature
T1 sequence (A0A8I3NSH0 1-343): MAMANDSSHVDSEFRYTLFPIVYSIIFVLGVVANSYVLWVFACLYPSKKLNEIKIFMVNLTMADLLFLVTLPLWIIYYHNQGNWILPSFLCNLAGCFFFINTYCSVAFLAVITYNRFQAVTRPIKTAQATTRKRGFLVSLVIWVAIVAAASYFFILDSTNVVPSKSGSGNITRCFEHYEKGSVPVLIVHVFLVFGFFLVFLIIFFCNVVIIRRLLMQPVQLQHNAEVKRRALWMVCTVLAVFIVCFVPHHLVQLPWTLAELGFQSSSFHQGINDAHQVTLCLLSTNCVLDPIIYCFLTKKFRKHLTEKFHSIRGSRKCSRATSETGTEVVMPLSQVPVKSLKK
Experimental: The binding assay was performed in 400 μl polyethylene microcentrifuge tubes (Beckman) containing 50 μl of an oil mixture of 2 parts Siliconol AR200 (Serva): 1 part Silicone Fluid (Arthur H. Thomas). Buffer, standards, or analogs 150 μl total volume) were added to the tubes. Radiolabelled ^3 H-PAF (50 μl) was then added to the tubes. The reaction was started by the addition of 50 μl of dog platelets (2×10^7 platelets). The tubes were capped, inverted several times to mix, and incubated for 10 minutes at room temperature. The platelets were separated from the incubation mixture by centrifuging 1 minute in a Beckman Microfuge B centrifuge. The tip of the microfuge tube was cut off, and the platelets were washed out of the tip with 200 μl of 50% methanol (Burdick and Jackson). Aquasol (NEN, 10 ml) was added and the radioactivity in the samples was determined using an LS 8100 Beckman liquid scintillation counter linked to a Techtran tape recorder. Data was processed through an in-house computer system. Alternatively, radioactivity was determined using a Searle Mark III liquid scintillation counter linked to a Iso-Data microprocessor.
Blood was collected from anesthesized or unanesthesized dogs into 5ml plastic centrifuge tubes containing 3.8% sodium citrate as the anticoagulant (1 volume of citrate/9 volumes of blood). The red cells were removed by centrifugation for 15 minutes at 600 rpm (100-125 g) at room temperature. An aliquot of the supernatant platelet rich Plasma (PRP) was saved for cell counting and the remainder was acidified to pH 6.5 with 0.15M citric acid. The platelet pellet was obtained after a 10 minute centrifugation at 2000 rpm (1000 g) at room temperature. Washed platelets were prepared by resuspending the platelet pellet once with PBS containing 1 mM EDTA, centrifuging as noted, and then resuspending the platelets in 0.1% BSA-PBS. An aliquot of the washed platelets was counted, platelets used for binding assays were diluted to 2×10^7 platelets/assay tube (4×10^8 platelets/ml).

[3] = test system: PAF-Induced Bronchoconstriction; experiment: PAF-Induced Bronchoconstriction Assay; type: in vivo, guinea pig; details: Cavia porcellus; for inhibition in vivo at 1 mg/kg: 1 min, 1 mg/kg iv, 1 minute pretreatment; for inhibition in vivo at 50 mg/kg: po, 2 hours pretreatment
Experimental: The in vivo ability of compounds to inhibit PAF-induced bronchoconstriction in guinea pigs was assessed by the intravenous and oral routes of administration. The intravenous technique utilized male guinea pigs (Hartley strain, Charles River) weighing 400-600 g. Animals were anesthetized with urethane (2 g/kg) intraperitoneally and a polyethylene cannula was inserted into the jugular vein for intravenous drug administration. Tracheal pressure ([…]) was recorded from a Statham pressure transducer (P 32 AA). Propranolol was administered 5 minutes prior to challenge with PAF. Two minutes later spontaneous breathing was arrested with succinylcholine chloride (1.2 mg/kg) administered intravenously, and the animals were ventilated with a Harvard (Model 680) small animal respirator set at 40 breaths/min and 4.0 cc stroke volume. Control vehicle or test drug was administered through the cannula into the jugular vein 1 minute before the animals were challenged with a maximum constrictory dose of PAF (1.0 μg/kg) given intravenously. The change in tracheal pressure was averaged for four control and four drug-treated animals and percent inhibition was calculated.
For determination of oral activity, animals were dosed with test compound or vehicle two hours prior to challenge with PAF (1.0 μg/kg, i.v.).
The change in tracheal pressure is determined by subtracting the steady state baseline achieved after administration of succinylcholine from the peak bronchoconstriction seen after challenge with PAF. The mean change in tracheal pressure is calculated for each test compound and compared to the mean change in tracheal pressure for the control animals to give the percent inhibition of bronchoconstriction. The standard error is calculated as the standard error of the mean.

[4] = molecular target: T2, Thromboxane Synthase (TXA2 Syn.) (Homo sapiens, UniProt P24557); experiment: TXA2 Synthesis Inhibition (thromboxane synthase, microsomal fractions from human platelets); type: biochemical; details: human platelet microsomes, 10 μM 14C-PGH2, 22°, 2 minutes
T2 construct: microsomal fractions from human platelets as enzyme source; from tissue; host or cells: microsomal fractions from human platelets
T2 sequence (P24557 1-533): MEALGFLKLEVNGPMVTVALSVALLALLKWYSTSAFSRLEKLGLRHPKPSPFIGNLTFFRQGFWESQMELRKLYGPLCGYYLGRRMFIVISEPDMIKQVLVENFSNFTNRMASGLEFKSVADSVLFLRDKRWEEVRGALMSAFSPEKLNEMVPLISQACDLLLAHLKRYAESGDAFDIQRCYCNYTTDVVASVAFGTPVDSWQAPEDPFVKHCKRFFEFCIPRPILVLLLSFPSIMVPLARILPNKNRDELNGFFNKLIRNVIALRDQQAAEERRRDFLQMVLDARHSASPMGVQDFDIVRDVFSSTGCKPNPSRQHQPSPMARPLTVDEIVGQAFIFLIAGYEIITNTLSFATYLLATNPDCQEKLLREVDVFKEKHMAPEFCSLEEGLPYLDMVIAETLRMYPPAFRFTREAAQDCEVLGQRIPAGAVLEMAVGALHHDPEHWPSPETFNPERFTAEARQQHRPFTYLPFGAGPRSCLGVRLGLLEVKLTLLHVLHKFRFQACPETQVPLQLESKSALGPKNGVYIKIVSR
Experimental: Thromboxane synthase inhibitory activity is measured by following the conversion of ^14 C-[…] using microsomal fractions from human platelets as enzyme source. In the aqueous incubation medium. The TXA2 decomposes rapidly into TXB2 . The amount of TXA2 syn. is adjusted so that under the conditions of the assay approximately 80-90% of the substrate. PGH2, is converted to product in control tubes. To prepare ^14 C-PGH2, ^14 C-AA(50-60mCi/mmole; Rose Chem.) is incubated with sheep seminal vesicular gland microsomes for 1.5 min. at 37° and then the ^14 C-PGH2 is extracted with diethylether, purified on columns of Sephadex LH-20 or silicic acid, and stored in acetone at -70° C. Incubations are done as follows. Sufficient ^14 C-PGH2 to yield a final substrate concentration of 10 μM ( 30,000 cpm) is added to the incubation tubes and then the acetone is removed under nitrogen. The tubes are placed in an ice bath and then 215 μl of ice cold phosphate buffered saline, 10 μof ethanol (control) or of test drug in ethanol, and 25 μl of the microsomal suspension are added with mixing in that order as rapidly as possible. The tubes are incubated at 22° for 2 minutes, the reaction is stopped and then the radioactive products and the unconverted PGH2 are extracted and analyzed by thin layer chromatography. The amount of ^14 C-PGH2 converted to products is analyzed by thin layer chromatography. The amount of ^14 C-PGH2 converted to products was used as a measure of TXA synthase activity. Inhibitors were tested initially at a concentration of 100 μM.

Row | SMILES | IC50 [2] [nM] | IC50 [4] [nM] | inhibition in vivo at 3 mg/kg [1] [%] | PAF-Induced Platelet Count Decrease % Inhibition, po ([1]; po, no dose footnote printed) [%] | inhibition in vivo at 1 mg/kg [3] [%] | inhibition in vivo at 50 mg/kg [3] [%]
1 | COc1ccc(-c2ccc(C(=O)NC(C)CCCc3cccnc3)cc2)cc1OC (racemic) [(rac.)-3',4'-Dimethoxy-N-[1-methyl-4-(3-pyridinyl)butyl][1,1'-biphenyl]-4-carboxamide] | – | – | 26 | 75 ± 21 | – | –
2 | Cc1ccc(-c2ccc(C(=S)NC(C)CCCc3cccnc3)cc2)cc1C (racemic) [rac.-3',4'-Dimethyl-N-[1-methyl-4-(3-pyridinyl)butyl][1,1'-biphenyl]-4-carbothioamide] | 110 | – | 28 | – | 4 ± 4 | –
3 | Cc1ccc(-c2ccc(C(=O)NCCCCc3cccnc3)cc2)cc1C [3',4'-Dimethyl-N-[4-(3-pyridinyl)butyl][1,1-biphenyl]-4-carboxamide] | 700 | 125 | – | – | – | –
4 | O=C(NCCCCc1cccnc1)c1ccc(-c2cccc(O)c2)cc1 [3'-Hydroxy-N-[4-(3-pyridinyl)-butyl][1,1'-biphenyl]-4-carboxamide] | 300 | < 100 | – | – | – | –
5 | COc1cccc(-c2ccc(C(=O)NCCCCc3cccnc3)cc2)c1 [3'-Methoxy-N-[4-(3-pyridinyl)butyl][1,1'-biphenyl]-4-carboxamide] | 280 | 25 | – | – | 70 ± 10 | 55 ± 17
6 | O=C(NCCCCc1cccnc1)c1ccc(-c2ccccc2)c(-c2ccccc2)c1 [3,4-Diphenyl-N-[4-(3-pyridinyl)butyl]-benzamide] | – | – | 49 | – | 21 ± 4 | 33 ± 12
7 | COc1cccc(-c2ccc(C(=O)NCCCCc3cccnc3)cc2-c2cccc(OC)c2)c1 [3,4-bis-(3-Methoxyphenyl)-N-[4-(3-pyridinyl)butyl]-benzamide] | – | – | 4 | – | 12 ± 6 | –
8 | COc1ccc(-c2ccc(C(=O)N[C@H](C)CCCc3cccnc3)cc2Br)cc1OC [(R)-2-Bromo-3',4'-dimethoxy-N-[1-methyl-4-(3-pyridinyl)-butyl][1,1'-biphenyl]-4-carboxamide] | 180 | – | – | – | 98 ± 0.7 | 97 ± 1
9 | COc1ccc(-c2ccc(C(=O)N[C@H](C)CCCc3cccnc3)cc2[N+](=O)[O-])cc1OC [(R)-2-Nitro-3',4'-dimethoxy-N-[1-methyl-4-(3-pyridinyl)-butyl][1,1'-biphenyl]-4-carboxamide] | 200 | – | – | – | 97 ± 4 | 89 ± 8
10 | C[C@H](CCCc1cccnc1)NC(=O)c1ccc(-c2ccccc2)c(-c2ccccc2)c1 [(R)-3,4-diphenyl-N-[1-methyl-4-(3-pyridinyl)-butyl]benzamide] | 250 | – | – | – | 31 ± 4 | –
11 | O=C(NCCCCc1cccnc1)c1ccc(-c2ccccc2)cc1 [N-[4-(3-Pyridinyl)butyl]-[1,1'-biphenyl]-4-carboxamide] | – | 100 | – | – | 42 ± 7 | –
12 | O=C(NCCCCc1cccnc1)c1cccc(-c2ccccc2)c1 [N-[4-(3-pyridinyl)butyl][1,1'-biphenyl]-3-carboxamide] | 620 | – | – | – | 14 ± 10 | –

More lines, in order of falling IC50 [2], values ahead:

Row | IC50 [2] [nM] | IC50 [4] [nM] | SMILES | inhibition in vivo at 3 mg/kg [1] [%] | PAF-Induced Platelet Count Decrease % Inhibition, po ([1]; po, no dose footnote printed) [%] | inhibition in vivo at 1 mg/kg [3] [%] | inhibition in vivo at 50 mg/kg [3] [%]
13 | 80 | – | C=CCc1cc(C(=O)N[C@H](C)CCCc2cccnc2)ccc1-c1ccc(OC)c(OC)c1 [(R)-3',4'-Dimethoxy-N-[1-methyl-4-(3-pyridinyl)butyl]-2-(2-propenyl)-[1,1'-biphenyl]-4-carboxamide] | – | – | 80 ± 11 | 93 ± 3
14 | 60 | – | COc1ccc(-c2cc(C)c(C(=O)NCCCCc3cccnc3)c(C)c2)cc1OC [3',4'Dimethoxy-3,5-dimethyl-N-[4-(3-pyridinyl)butyl][1,1'-biphenyl]-4-carboxamide] | 14 | – | 17 ± 11 | –
15 | 50 | – | CCCc1cc(C(=O)N[C@H](C)CCCc2cccnc2)ccc1-c1ccccc1 [(R)-2-Propyl-N-[1-methyl-4-(3-pyridinyl)-butyl]-[1,1'-biphenyl]-4-carboxamide] | – | – | 12 ± 6 | –
16 | 50 | – | CCCc1cc(C(=O)N[C@H](C)CCCc2cccnc2)ccc1-c1ccc(OC)c(OC)c1 [(R)-3',4'-Dimethoxy-N-[1-methyl-4-(3-pyridinyl)butyl]-2-propyl-[1,1'-biphenyl]-4-carboxamide] | – | – | 28 ± 12 | –
17 | 20 | – | COc1cccc(-c2ccc(C(=O)N[C@H](C)CCCc3cccnc3)cc2)c1 [(R)-3'-Methoxy-N-[1-methyl-4-(3-pyridinyl)butyl]-[1,1'-biphenyl]-4-carboxamide] | 17 | – | – | –
18 | 4 | – | CCc1cc(C(=O)N[C@H](C)CCCc2cccnc2)ccc1-c1ccc(OC)c(OC)c1 [(R)-2-Ethyl-3',4'-dimethoxy-N-[1-methyl-4-(3-pyridinyl)butyl][1,1'-biphenyl]-4-carboxamide] | – | – | 93 ± 1 | 89 ± 5
